From PubChem BioAssay (NCI)
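Step 1: Grow cells in 96-well plates. Step 2: Expose to compound for 48 hours at 5 concentrations. Step 3: Interpolate endpoints linearly; if unreached, use highest concentration. At the GI50, growth is halved. At the TGI there is no net growth.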

Assays:
Experiment in all cases: NCI-60 cell line screen, 48 h; in the data active = GI50 below about 0.43 µM; inactive = the rest
MALME-3M melanoma = tested on: MALME-3M melanoma
SK-MEL-28 melanoma = tested on: SK-MEL-28 melanoma
OVCAR-4 ovarian = tested on: OVCAR-4 ovarian
HL-60(TB) leukemia = tested on: HL-60(TB) leukemia
SN12C renal = tested on: SN12C renal
K-562 leukemia = tested on: K-562 leukemia
A549 NSCLC = tested on: A549 NSCLC
SNB-75 CNS = tested on: SNB-75 CNS
CCRF-CEM leukemia = tested on: CCRF-CEM leukemia
MOLT-4 leukemia = tested on: MOLT-4 leukemia
SK-MEL-2 melanoma = tested on: SK-MEL-2 melanoma
DU-145 prostate = tested on: DU-145 prostate
IGROV1 ovarian = tested on: IGROV1 ovarian
RXF 393 renal = tested on: RXF 393 renal
NCI-H522 lung = tested on: NCI-H522 lung
T-47D breast = tested on: T-47D breast
UO-31 renal = tested on: UO-31 renal
LOX IMVI melanoma = tested on: LOX IMVI melanoma
MDA-MB-231 breast = tested on: MDA-MB-231 breast
U251 CNS = tested on: U251 CNS
SK-OV-3 ovarian = tested on: SK-OV-3 ovarian
HCT-116 colon = tested on: HCT-116 colon
PC-3 prostate = tested on: PC-3 prostate
786-0 renal = tested on: 786-0 renal
SF-539 CNS = tested on: SF-539 CNS
SW-620 colon = tested on: SW-620 colon
HT29 colon = tested on: HT29 colon
HCC-2998 colon = tested on: HCC-2998 colon

CC1(C)N=C(N)N=C(N)N1c1ccc(OCc2ccc(S(=O)(=O)F)c(Cl)c2)c(Cl)c1
active: GI50 (IGROV1 ovarian) 0.123 µM | GI50 (SW-620 colon) 0.424 µM
> 100 µM: TGI (MALME-3M melanoma) | TGI (SK-MEL-28 melanoma) | TGI (OVCAR-4 ovarian) | TGI (HL-60(TB) leukemia) | TGI (SN12C renal) | TGI (K-562 leukemia) | TGI (A549 NSCLC) | TGI (SNB-75 CNS) | TGI (CCRF-CEM leukemia) | TGI (MOLT-4 leukemia) | TGI (SK-MEL-2 melanoma) | TGI (DU-145 prostate) | TGI (IGROV1 ovarian) | TGI (RXF 393 renal) | TGI (NCI-H522 lung) | TGI (T-47D breast) | TGI (UO-31 renal) | TGI (LOX IMVI melanoma) | TGI (MDA-MB-231 breast) | TGI (U251 CNS) | TGI (SK-OV-3 ovarian) | TGI (HCT-116 colon) | TGI (PC-3 prostate) | TGI (786-0 renal) | TGI (SF-539 CNS) | TGI (SW-620 colon) | TGI (HT29 colon) | TGI (HCC-2998 colon)
inactive: GI50 (SK-MEL-28 melanoma) 8.61 µM | GI50 (OVCAR-4 ovarian) 17.5 µM | GI50 (HL-60(TB) leukemia) 1.35 µM | GI50 (SN12C renal) 0.558 µM | GI50 (K-562 leukemia) 0.448 µM | GI50 (A549 NSCLC) 0.499 µM | GI50 (SNB-75 CNS) 4.92 µM | GI50 (CCRF-CEM leukemia) 1.06 µM | GI50 (MOLT-4 leukemia) 3.59 µM | GI50 (SK-MEL-2 melanoma) > 100 µM | GI50 (DU-145 prostate) 4 µM | GI50 (RXF 393 renal) 18.7 µM | GI50 (NCI-H522 lung) 3.28 µM | GI50 (T-47D breast) 77.7 µM | GI50 (UO-31 renal) 46 µM | GI50 (LOX IMVI melanoma) 0.448 µM | GI50 (MDA-MB-231 breast) > 100 µM | GI50 (U251 CNS) 2.9 µM | GI50 (SK-OV-3 ovarian) > 100 µM | GI50 (HCT-116 colon) 0.51 µM | GI50 (PC-3 prostate) 0.502 µM | GI50 (786-0 renal) 0.814 µM | GI50 (SF-539 CNS) 4.57 µM | GI50 (HT29 colon) 0.845 µM | GI50 (HCC-2998 colon) 4.97 µM
